Target: T1, recombinant human mPGES-1 (Homo sapiens, UniProt O14684)
T1 construct: made in house; host or cells: Rosetta E. coli (microsomal/membrane fraction)
T1 sequence (O14684 1-152): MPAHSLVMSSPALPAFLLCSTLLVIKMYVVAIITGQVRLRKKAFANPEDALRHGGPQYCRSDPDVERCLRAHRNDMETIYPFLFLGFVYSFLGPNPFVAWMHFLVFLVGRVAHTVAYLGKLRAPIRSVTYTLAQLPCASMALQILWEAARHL
Assay: mPGES-1 inhibition, HTRF detection of PGE2 (Biological Test)
Format: biochemical
Experimental: Microsomes from Rosetta E. coli bacteria expressing recombinant human mPGES-1 is dissolved in 0.1 M KPi pH 7.4 buffer containing 2.5 mM GSH. 50 μl of the enzyme is subsequently dispensed in a 384-well plate. 0.5 μl of the inhibitor dissolved in DMSO at is thereafter added to each well and incubated for 25 minutes at room temperature.
Subsequently, 2 μl of PGH2 dissolved in an appropriate solvent is added to each well and after one minute the acidified stop solution containing FeCl2 is added. 4 μl of the total volume is transferred to a separate plate and diluted 750-fold in two separate steps before HTRF detection of PGE2.
The HTRf detection is performed by the use of a commercially available kit from CisBio essentially according to the manufacturer's protocol. Briefly, 10 μl of the diluted sample is transferred to a white 384-well plate. 5 μl of d2 and 5 μl Eu3+-Cryptate labeled anti-PGE2 is added to each well containing samples by the use of a Multidrop. The plate is covered with a plastic self-adhesive film, centrifuged at 1200 rpm for 1 minute and subsequently stored at +4° C. over night.
After over night incubation the fluorescence is measured by the use of an appropriate microplate reader. The fluorescence of europium cryptate, and d2 are measured using the following excitation and emission wavelength, europium cryptate: λmax^ex=307 nm, λmax^em=620 nm and d2: λmax^ex=620 nm, λmax^em=665 nm), respectively. The extent of the specific FRET is measured as a ratio of the emission intensity at 665 nm vs. that at 620 nm. A standard curve using synthetic PGE2 is used to quantify the amount of PGE2 in unknown samples.

SMILES: O=C(NCC(F)(F)C(F)(F)C(F)(F)C(F)(F)F)c1cc2nc(Nc3ncc(Cl)cc3Cl)[nH]c2cc1OC(F)F [Example 700, 2-(3,5-Dichloro-pyridin-2-yl-amino)-N-(2,2,3,3,4,4,5,5,5-nonafluoro-pentyl)-6-(difluoromethoxy)-1H-benzimidazole-5-carboxamide]
- inhibition at 10 µM: 98%

SMILES: Cn1c(Nc2c(Cl)cncc2Cl)nc2cc(C(=O)NCc3ncccc3C(F)(F)F)ccc21 [Example 553, 2-(3,5-Dichloropyridin-4-ylamino)-1-methyl-N-((3-trifluoromethyl-pyridin-2-yl)methyl)-1H-benzimidazole-5-carboxamide]
- inhibition at 10 µM: 53%

SMILES: O=C(Nc1ccc(Br)cc1)c1cc2nc(Nc3c(Cl)cncc3Cl)[nH]c2cc1OCC(F)(F)F [Example 676, 2-(3,5-Dichloropyridin-4-ylamino)-N-(4-bromophenyl)-6-(2,2,2-trifluoroethoxy)-1H-benzimidazole-5-carboxamide]
- inhibition at 10 µM: 100%

SMILES: CCOc1cc2[nH]c(Nc3c(Cl)cncc3Cl)nc2cc1C(=O)NC1CCC(C)(C)CC1 [Example 669, 2-(3,5-Dichloropyridin-4-ylamino)-N-(4,4-dimethyl-cyclohexyl)-6-ethoxy-1H-benzimidazole-5-carboxamide]
- inhibition at 10 µM: 100%

SMILES: O=C(Nc1ccc(Br)cc1)c1cc2nc(Nc3c(Cl)cncc3Cl)[nH]c2cc1OC1CCOC1 (stereo not drawn) [Example 659, 2-(3,5-Dichloro-pyridin-4-yl-amino)-6-(tetrahydrofuran-3-yl-oxy)-N-(4-bromo-phenyl)-1H-benzimidazole-5-carboxamide]
- inhibition at 10 µM: 98%

SMILES: COCCOc1cc2[nH]c(Nc3c(Cl)cncc3Cl)nc2cc1C(=O)NCc1ncccc1C(F)(F)F [Example 686, 2-(3,5-Dichloro-pyridin-4-ylamino)-N-((3-trifluoromethyl-pyridin-2-yl)-methyl)-6-(2-methoxy-ethoxy)-1H-benzimidazole-5-carboxamide]
- inhibition at 10 µM: 99%

SMILES: O=C(Nc1ccc(F)c(C(F)F)n1)c1cc2nc(Nc3c(Cl)cncc3Cl)[nH]c2cc1OCC(F)(F)F [Example 707, 2-(3,5-Dichloropyridin-4-ylamino)-N-(6-difluoromethyl-5-fluoro-pyridin-2-yl)-6-(2,2,2-trifluoroethoxy)-1H-benzimidazole-6-carboxamide]
- inhibition at 10 µM: 100%

SMILES: COc1cc2[nH]c(Nc3c(Cl)cncc3Cl)nc2cc1C(=O)Nc1cc(C(F)(F)F)cc(N(C)C)n1 [Example 692, 2-(3,5-Dichloropyridin-4-ylamino)-N-(6-dimethylamino-4-trifluoromethyl-pyridin-2-yl)-6-methoxy-1H-benzimidazole-5-carboxamide]
- inhibition at 10 µM: 95%

SMILES: CCCOc1cc2c(cc1C(=O)Nc1ccc(Br)cc1)nc(Nc1c(Cl)cncc1Cl)n2C [Example 660, 2-(3,5-Dichloropyridin-4-ylamino)-N-(4-bromophenyl)-6-propoxy-1-methyl-1H-benzimidazole-5-carboxamide]
- inhibition at 10 µM: 99%

SMILES: O=C(NCc1ccccc1C(F)(F)F)c1ccc2[nH]c(Nc3c(Cl)cncc3Cl)nc2c1 [Example 493, 2-(3,5-Dichloropyridin-4-ylamino)-N-(2-trifluoromethyl-benzyl)-1H-benzimidazole-5-carboxamide]
- inhibition at 10 µM: 100%

SMILES: CCOc1cc2c(cc1C(=O)Nc1cc(C(F)(F)F)ccn1)nc(Nc1c(Cl)cncc1Cl)n2CC(F)(F)F [Example 705]
- inhibition at 10 µM: 94%

SMILES: CCOc1cc2[nH]c(Nc3c(Cl)cncc3Cl)nc2cc1C(=O)Nc1cc(C(F)(F)F)cc(N(C)C)n1 [Example 697]
- inhibition at 10 µM: 100%

SMILES: CCOc1cc2[nH]c(Nc3c(Cl)cncc3Cl)nc2cc1C(=O)Nc1ccc(Br)cc1 [Example 695, 2-(3,5-Dichloropyridin-4-ylamino)-N-(4-bromo-phenyl)-6-ethoxy-1H-benzimidazole-6-carboxamide]
- inhibition at 10 µM: 94%

SMILES: CCOc1cc2[nH]c(Nc3c(Cl)cncc3Cl)nc2cc1C(=O)NCc1ncccc1Cl [Example 693, 2-(3,5-Dichloropyridin-4-ylamino)-N-((3-chloro-pyridin-2-yl)-methyl)-6-ethoxy-1H-benzimidazole-5-carboxamide]
- inhibition at 10 µM: 97%

SMILES: COc1cc2[nH]c(Nc3c(Cl)cncc3Cl)nc2cc1C(=O)Nc1ccc(C2CC2)cn1 [Example 684, 2-(3,5-Dichloro-pyridin-4-ylamino)-N-(5-cyclopropyl-pyridin-2-yl)-6-methoxy-1H-benzimidazole-5-carboxamide]
- inhibition at 10 µM: 98%

SMILES: O=C(N[C@H]1CC[C@H](C(F)(F)F)CC1)c1cc2nc(Nc3c(Cl)cncc3Cl)[nH]c2cc1OC(F)F [Example 701, 2-(3,5-Dichloropyridin-4-ylamino)-N-(trans-4-trifluoromethyl-cyclohex-1-yl)-6-difluoromethoxy-1H-benzimidazole-5-carboxamide]
- inhibition at 10 µM: 100%

SMILES: O=C(N[C@H]1CC[C@H](C(F)(F)F)CC1)c1cc2nc(Nc3c(Cl)cncc3Cl)[nH]c2cc1OCC(F)(F)F [Example 675, 2-(3,5-Dichloro-pyridin-4-yl-amino)-6-(2,2,2-trifluoro-ethoxy)-N-(trans-4-trifluoromethyl-cyclohex-1-yl)-1H-benzimidazole-5-carboxamide]
- inhibition at 10 µM: 100%

SMILES: Cn1c(Nc2c(Cl)cncc2Cl)nc2cc(C(=O)Nc3ccc(Br)cc3)ccc21 [Example 410, N-(4-Bromophenyl)-2-(3,5-dichloropyridin-4-ylamino)-1-methyl-1H-benzimidazole-5-carboxamide]
- inhibition at 10 µM: 100%

SMILES: CN(C)c1cc2c(cc1C(=O)NC1CCC(C)(C)CC1)nc(Nc1c(Cl)cncc1Cl)n2C [Example 672, 2-(3,5-Dichloropyridin-4-ylamino)-N-(4,4-dimethyl-cyclohexyl)-6-dimethylamino-1-methyl-1H-benzimidazole-5-carboxamide]
- inhibition at 10 µM: 100%

SMILES: O=C(Nc1ccc(Br)cc1)c1ccc2[nH]c(Nc3ccncc3Cl)nc2c1 [Example 566, N-(4-Bromophenyl)-2-(3-chloropyridin-4-ylamino)-1H-benzimidazole-5-carboxamide]
- inhibition at 10 µM: 77%

SMILES: O=C(Nc1cc(C(F)(F)F)ccn1)c1cc2nc(Nc3c(Cl)cncc3Cl)[nH]c2cc1OC(F)F [Example 702]
- inhibition at 10 µM: 95%

SMILES: Cn1c(Nc2c(Cl)cncc2Cl)nc2cc(C(=O)Nc3ccc(Br)cc3)c(OC3CCOC3)cc21 (stereo not drawn) [Example 661, 2-(3,5-Dichloropyridin-4-ylamino)-N-(4-bromophenyl)-6-(tetrahydrofuran-3-yl-oxy)-1-methyl-1H-benzimidazole-5-carboxamide]
- inhibition at 10 µM: 100%

SMILES: CCOc1cc2[nH]c(Nc3c(Cl)cncc3Cl)nc2cc1C(=O)NCC(F)(F)C(F)(F)C(F)(F)C(F)(F)F [Example 691, 2-(3,5-Dichloropyridin-4-ylamino)-N-(2,2,3,3,4,4,5,5,5-nonafluoropentyl)-6-ethoxy-1H-benzimidazole-5-carboxamide]
- inhibition at 10 µM: 97%

SMILES: COc1cc2[nH]c(Nc3c(Cl)cncc3Cl)nc2cc1C(=O)Nc1cc(C(F)(F)F)ccn1 [Example 680, 2-(3,5-Dichloropyridin-4-ylamino)-N-(4-trifluoromethyl-pyridin-2-yl)-6-methoxy-1H-benzimidazole-5-carboxamide]
- inhibition at 10 µM: 100%

SMILES: COc1cc2[nH]c(Nc3c(Cl)cncc3Cl)nc2cc1C(=O)Nc1ccc(Br)cn1 [Example 682, 2-(3,5-Dichloro-pyridin-4-ylamino)-N-(5-bromo-pyridin-2-yl)-6-methoxy-1H-benzimidazole-5-carboxamide]
- inhibition at 10 µM: 99%

SMILES: O=C(NCc1ncccc1C(F)F)c1cc2nc(Nc3c(Cl)cncc3Cl)[nH]c2cc1OCC(F)(F)F [Example 711, 2-(3,5-Dichloropyridin-4-ylamino)-N-((3-difluoromethyl-pyridin-2-yl)-methyl)-6-(2,2,2-trifluoro-ethoxy)-1H-benzimidazole-5-carboxamide]
- inhibition at 10 µM: 98%

SMILES: Cn1c(Nc2c(Cl)cncc2Cl)nc2cc(C(=O)Nc3ccc(Br)cc3)c(OCCN3CCCC3=O)cc21 [Example 664, 2-(3,5-Dichloropyridin-4-ylamino)-N-(4-bromophenyl)-6-(2-(pyrrolidin-2-on-1-yl)-ethoxy)-1-methyl-1H-benzimidazole-5-carboxamide]
- inhibition at 10 µM: 99%

SMILES: CCOc1cc2[nH]c(Nc3c(Cl)cncc3Cl)nc2cc1C(=O)NCc1ccccc1C(F)(F)F [Example 689, 2-(3,5-Dichloropyridin-4-ylamino)-N-((2-trifluoromethyl-phen-1-yl)-methyl)-6-ethoxy-1H-benzimidazole-5-carboxamide]
- inhibition at 10 µM: 100%

SMILES: Cn1c(Nc2ccncc2Cl)nc2cc(C(=O)Nc3ccc(Br)cc3)ccc21 [Example 520, N-(4-Bromophenyl)-2-(3-chloropyridin-4-ylamino)-1-methyl-1H-benzimidazole-5-carboxamide]
- inhibition at 10 µM: 97%

SMILES: COc1cc2[nH]c(Nc3c(Cl)cncc3Cl)nc2cc1C(=O)Nc1cccc(N(C)C)n1 [Example 696, 2-(3,5-Dichloropyridin-4-ylamino)-N-(6-dimethylamino-pyridin-2-yl)-6-methoxy-1H-benzimidazole-5-carboxamide]
- inhibition at 10 µM: 100%
